Here are results for six compounds from article PMC10873635 (Proceedings of the National Academy of Sciences of the …, 2024).

For one assay, the target named is T1, His6-Scap(L1)-FLAG (Cricetulus griseus, UniProt P97260).
T1 sequence (P97260 46-269): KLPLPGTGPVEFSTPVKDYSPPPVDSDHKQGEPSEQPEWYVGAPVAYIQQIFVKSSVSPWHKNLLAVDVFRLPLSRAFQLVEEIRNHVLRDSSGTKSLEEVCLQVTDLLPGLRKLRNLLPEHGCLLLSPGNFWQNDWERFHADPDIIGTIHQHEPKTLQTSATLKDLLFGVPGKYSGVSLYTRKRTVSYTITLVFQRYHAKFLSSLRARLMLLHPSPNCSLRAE
As to the kind of experiment: competition with [3H]cholesterol. Type of assay: binding. The conditions noted are these: 150 nM [3H]cholesterol, 0.004% NP-40, 0.002% FC-13, 4 °C, 4 h.

The next assay concerns the target His6-ALO (Anthrolysin O) (Bacillus anthracis, UniProt A0A6L7HHW7). Type of assay: biochemical.

Molecules are shown by their SMILES.

His6-ALO (Anthrolysin O), sequence (A0A6L7HHW7 35-512 limits assumed): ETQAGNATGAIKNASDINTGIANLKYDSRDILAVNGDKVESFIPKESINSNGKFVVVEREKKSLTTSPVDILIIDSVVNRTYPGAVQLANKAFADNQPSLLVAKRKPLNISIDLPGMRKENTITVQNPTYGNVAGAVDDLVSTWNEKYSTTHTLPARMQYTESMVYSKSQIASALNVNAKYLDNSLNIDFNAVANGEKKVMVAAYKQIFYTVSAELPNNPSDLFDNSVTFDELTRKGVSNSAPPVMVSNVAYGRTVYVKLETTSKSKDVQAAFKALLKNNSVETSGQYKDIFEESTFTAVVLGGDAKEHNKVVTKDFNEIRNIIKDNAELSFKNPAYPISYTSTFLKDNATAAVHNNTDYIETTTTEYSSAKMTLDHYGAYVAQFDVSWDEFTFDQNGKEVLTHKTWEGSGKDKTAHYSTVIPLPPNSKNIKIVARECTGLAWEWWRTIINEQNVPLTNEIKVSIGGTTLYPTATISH

Consider `CC(C)CCC[C@@H](C)[C@H]1CC[C@H]2[C@@H]3CC=C4C[C@@H](O)CC[C@]4(C)[C@H]3CC[C@]12C` [cholesterol], for which the “competition with [3H]cholesterol” value on His6-Scap(L1)-FLAG (also labelled compound) was “As expected, both Scap and ALO bind cholesterol”. The “inhibition of hemolysis of rabbit erythrocytes” value (“inhibition” for short) against His6-ALO (Anthrolysin O) is “the sterol occupied the binding pocket, preventing ALO from binding to the membrane and inhibiting hemolysis”.

`CC(C)CCC[C@@H](C)[C@H]1CC[C@H]2[C@@H]3CC[C@H]4C[C@@H](O)CC[C@]4(C)[C@H]3CC[C@]12C` [dihydrocholesterol]: at His6-Scap(L1)-FLAG (competitive), the “competition with [3H]cholesterol” value is “as well as dihydrocholesterol, where the double bond in the steroid nucleus is reduced”. For `CC(C)=CCC[C@@H](C)[C@H]1CC[C@H]2[C@@H]3CC=C4C[C@@H](O)CC[C@]4(C)[C@H]3CC[C@]12C` [desmosterol], the “competition with [3H]cholesterol” value on His6-Scap(L1)-FLAG (competitive) was “both Scap and ALO bind desmosterol, 25-fluorocholesterol, and β-sitosterol”. For the same compound, on His6-ALO (Anthrolysin O), the “inhibition” value was “both Scap and ALO bind desmosterol, 25-fluorocholesterol, and β-sitosterol”. In the case of `CCOC(=O)c1ccc(NC(=O)Nc2ccc(-c3noc(C4CCC4)n3)cc2)cc1` [UT-59, ethyl 4-({[4-(5-cyclobutyl-1,2,4-oxadiazol-3-yl)anilino]carbonyl}amino) benzoate], the “competition with [3H]cholesterol” value on His6-Scap(L1)-FLAG (competitive, cholesterol site) was “UT-59 competed with [^3H]cholesterol for binding to His6-Scap(L1)-FLAG to a similar degree as unlabeled cholesterol”. As for `C[C@H](CCCC(C)(C)F)[C@H]1CC[C@H]2[C@@H]3CC=C4C[C@@H](O)CC[C@]4(C)[C@H]3CC[C@]12C` [25-fluorocholesterol], the “competition with [3H]cholesterol” value at His6-Scap(L1)-FLAG (competitive) is “both Scap and ALO bind desmosterol, 25-fluorocholesterol, and β-sitosterol”. In addition, the “inhibition” value against His6-ALO (Anthrolysin O) was “both Scap and ALO bind desmosterol, 25-fluorocholesterol, and β-sitosterol”. With `CC[C@H](CC[C@@H](C)[C@H]1CC[C@H]2[C@@H]3CC=C4C[C@@H](O)CC[C@]4(C)[C@H]3CC[C@]12C)C(C)C` [β-sitosterol], the “competition with [3H]cholesterol” value at His6-Scap(L1)-FLAG (competitive) is “both Scap and ALO bind desmosterol, 25-fluorocholesterol, and β-sitosterol”. For the same compound, the “inhibition” value against His6-ALO (Anthrolysin O) is “both Scap and ALO bind desmosterol, 25-fluorocholesterol, and β-sitosterol”.
